Activity calls are given as the source filed them. No cut-off for these calls is given here.
Columns and labels:
[1] = tested on: Mus musculus; assay: Anti-inflammatory activity in TREX1 D18N mouse model assessed as reduction in Isg56 mRNA expression in kidney at 10 mg/kg, ip measured after 2 weeks; assay type: functional, organism-based
[2] = tested on: Mus musculus; assay: Effect on Isg56 expression in Cisplatin induced C57BL/6 STING-KO mouse kidney inflammation model at 5 mg/kg, ip treated for 3 days by real-time PCR analysis; assay type: functional, organism-based; conditions: time 3.0 day
[3] = tested on: Mus musculus; assay: Anti-inflammatory activity against Cisplatin induced C57BL/6 mouse kidney inflammation model assessed as suppression of Cisplatin induced Isg15 mRNA level in kidney at 5 mg/kg, ip treated for 3 days by real-time PCR analysis; assay type: functional, organism-based; conditions: time 3.0 day
[4] = molecular target: T1, Stimulator of interferon genes protein (Mus musculus) (UniProt Q3TBT3); assay: Inhibition of STING downstream signalling in mouse BMDM cells assessed as inhibition of MSA-2 induced TBK1 phosphorylation pre-treated for 1 hr followed by stimulated with MSA-2 measured after 4 hrs by Western blot analysis; assay type: cell-based; conditions: dose 0.3-3 µM, time 5.0 hrs
T1 sequence (whole entry): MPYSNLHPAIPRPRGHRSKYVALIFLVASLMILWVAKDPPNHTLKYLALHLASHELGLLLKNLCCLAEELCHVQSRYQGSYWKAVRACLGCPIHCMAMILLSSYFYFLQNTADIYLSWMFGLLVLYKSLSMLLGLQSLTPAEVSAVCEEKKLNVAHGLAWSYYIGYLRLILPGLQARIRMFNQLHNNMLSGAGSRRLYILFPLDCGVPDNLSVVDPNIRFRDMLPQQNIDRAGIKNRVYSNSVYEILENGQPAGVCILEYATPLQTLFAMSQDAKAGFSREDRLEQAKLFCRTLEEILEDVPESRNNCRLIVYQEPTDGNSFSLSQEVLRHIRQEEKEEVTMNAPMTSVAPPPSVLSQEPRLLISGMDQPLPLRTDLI

[5] = Oral bioavailability in Sprague-Dawley rat at 3 mg/kg; assay type: ADME, organism-based; conditions: in vivo
[6] = tested on: Mus musculus; assay: Anti-inflammatory activity in TREX1 D18N mouse model assessed as reduction in IL6 mRNA expression in kidney at 10 mg/kg, ip measured after 2 weeks; assay type: functional, organism-based
[7] = molecular target: Stimulator of interferon genes protein (Homo sapiens) (UniProt Q86WV6); assay: Inhibition of STING downstream signalling in human THP1-Dual cells assessed as inhibition of MSA-2 induced IFN-beta secretion at 0.3 to 3 uM pre-treated for 1 hr followed by stimulated with MSA-2 measured after 24 hrs by ELISA; assay type: cell-based; conditions: dose 0.3-3 µM, time 25.0 hrs
Chain of Stimulator of interferon genes protein (Homo sapiens) (Q86WV6 whole entry): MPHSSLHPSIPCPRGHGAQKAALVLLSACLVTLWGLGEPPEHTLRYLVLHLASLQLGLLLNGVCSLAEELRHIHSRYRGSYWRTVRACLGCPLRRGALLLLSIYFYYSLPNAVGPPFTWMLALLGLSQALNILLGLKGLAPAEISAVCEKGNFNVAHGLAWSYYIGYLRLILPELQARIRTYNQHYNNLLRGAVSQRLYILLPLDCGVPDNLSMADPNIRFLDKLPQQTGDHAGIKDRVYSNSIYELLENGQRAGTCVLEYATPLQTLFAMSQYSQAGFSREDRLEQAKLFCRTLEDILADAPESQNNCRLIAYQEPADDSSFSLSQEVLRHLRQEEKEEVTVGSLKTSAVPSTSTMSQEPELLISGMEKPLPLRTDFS

[8] = MRT (0 to infinity) in Sprague-Dawley rat at 1 mg/kg, iv; assay type: ADME, organism-based; conditions: Sprague-Dawley, in vivo
[9] = tested on: Mus musculus; assay: Anti-inflammatory activity against Cisplatin induced C57BL/6 mouse kidney inflammation model assessed as suppression of Cisplatin induced Ifn-beta mRNA level in kidney at 5 mg/kg, ip treated for 3 days by real-time PCR analysis; assay type: functional, organism-based; conditions: time 3.0 day
[10] = molecular target: T1, Stimulator of interferon genes protein (Mus musculus); assay: Inhibition of STING in mouse […] ISG cells assessed as reduction in MSA-2-induced secreted luciferase reporter of interferon stimulated gene (ISG) measured after 24 hrs incubation; assay type: cell-based; conditions: RAW-Lucia ISG
[11] = Volume of distribution at steady state in Sprague-Dawley rat at 1 mg/kg, iv; assay type: ADME, organism-based; conditions: Sprague-Dawley, in vivo, read-out: Vdss
[12] = molecular target: Stimulator of interferon genes protein (Homo sapiens) (UniProt Q86WV6); assay: Inhibition of STING in human THP1-Dual cells assessed as inhibition of MSA-2 induced ISG signalling measured after 1 hr incubation followed by stimulated with MSA-2 by Western blotting analysis; assay type: cell-based
[13] = tested on: Mus musculus; assay: Anti-inflammatory activity against MSA-2 induced C57BL/6 mouse inflammation model assessed as inhibition of MSA-2 induced IP-10 level in kidney at 10 mg/kg, ip pre-treated for 1 hr followed by stimulated with MSA-2 for 4 hrs by ELISA; assay type: functional, organism-based; conditions: time 5.0 hrs
[14] = Metabolic stability in rat liver microsomes assessed as liver intrinsic clearance; assay type: ADME, Microsome
[15] = tested on: Mus musculus; assay: Anti-inflammatory activity in TREX1 D18N mouse model assessed as reduction in IL6 mRNA expression in heart at 10 mg/kg, ip measured after 2 weeks; assay type: functional, organism-based
[16] = tested on: Stimulator of interferon genes protein (Homo sapiens), Q86WV6 [UNDEFINED MUTATION]; assay: Inhibition of human STING expressed in 293T-Dual-hSTING-AQ cells assessed as reduction in cGAMP-induced secreted luciferase reporter of interferon stimulated gene (ISG) measured after 24 hrs incubation; assay type: cell-based
Chain of Stimulator of interferon genes protein (Homo sapiens), Q86WV6 [UNDEFINED MUTATION] (Q86WV6 whole entry, looked up, stated change not applied): as the sequence (Q86WV6 whole entry) above

[17] = tested on: Mus musculus; assay: Anti-inflammatory activity against MSA-2 induced C57BL/6 mouse inflammation model assessed as inhibition of MSA-2 induced IP-10 level in plasma at 10 mg/kg, ip pre-treated for 1 hr followed by stimulated with MSA-2 for 4 hrs by ELISA; assay type: functional, organism-based; conditions: time 5.0 hrs
[18] = tested on: Stimulator of interferon genes protein (Homo sapiens), Q86WV6 [UNDEFINED MUTATION]; assay: Inhibition of human STING expressed in 293T-Dual-hSTING-293Q cells assessed as reduction in cGAMP-induced secreted luciferase reporter of interferon stimulated gene (ISG) measured after 24 hrs incubation; assay type: cell-based
[19] = tested on: Mus musculus; assay: Anti-inflammatory activity in TREX1 D18N mouse model assessed as reduction in Ccl5 mRNA expression in heart at 10 mg/kg, ip measured after 2 weeks; assay type: functional, organism-based
[20] = molecular target: Stimulator of interferon genes protein (Homo sapiens) (UniProt Q86WV6); assay: Inhibition of STING downstream signalling in human THP1-Dual cells assessed as inhibition of cGAMP induced IP-10 mRNA expression at 0.3 to 3 uM pre-treated for 1 hr followed by stimulated with cGAMP measured after 4 hrs by real-time PCR analysis; assay type: cell-based; conditions: dose 0.3-3 µM, time 5.0 hrs
[21] = AUC (0 to infinity) in Sprague-Dawley rat at 1 mg/kg, iv; assay type: ADME, organism-based; conditions: in vivo
[22] = molecular target: T1, Stimulator of interferon genes protein (Mus musculus); assay: Inhibition of STING downstream signalling in mouse RAW264.7 cells assessed as inhibition of DMAAA induced Isg56 mRNA level pre-treated for 1 hr followed by stimulated with DMAAA measured after 4 hrs by real-time PCR analysis; assay type: cell-based; conditions: dose 0.3-3 µM, time 5.0 hrs
[23] = tested on: Mus musculus; assay: Anti-inflammatory activity against MSA-2 induced C57BL/6 mouse inflammation model assessed as inhibition of MSA-2 induced IL-6 level in plasma at 10 mg/kg, ip pre-treated for 1 hr followed by stimulated with MSA-2 for 4 hrs by ELISA; assay type: functional, organism-based; conditions: time 5.0 hrs
[24] = tested on: Mus musculus; assay: Toxicity in TREX1 D18N mouse model assessed as change in body weight at 10 mg/kg, ip measured after 2 weeks; assay type: organism-based; conditions: in vivo, 336 h
[25] = molecular target: T1, Stimulator of interferon genes protein (Mus musculus); assay: Inhibition of STING downstream signalling in mouse RAW264.7 cells assessed as inhibition of […] induced IL-6 secretion level at 0.3 to 3 uM pre-treated for 1 hr followed by stimulated with […] measured after 24 hrs by ELISA; assay type: cell-based; conditions: dose 0.3-3 µM, time 25.0 hrs
[26] = tested on: THP1-Dual; assay: Cytotoxicity against human THP1-Dual cells assessed as cell viability measured after 24 hrs by CCK8 assay; assay type: functional, cell-based
[27] = tested on: Mus musculus; assay: Anti-inflammatory activity against Cisplatin induced C57BL/6 mouse kidney inflammation model assessed as prevention of Cisplatin induced interstitial vacuolation at 5 mg/kg, ip treated for 3 days; assay type: functional, organism-based; conditions: time 3.0 day
[28] = molecular target: Stimulator of interferon genes protein (Homo sapiens) (UniProt Q86WV6); assay: Inhibition of STING downstream signalling in human THP1-Dual cells assessed as inhibition of MSA-2 induced IP-10 secretion at 0.3 to 3 uM pre-treated for 1 hr followed by stimulated with MSA-2 measured after 24 hrs by ELISA; assay type: cell-based; conditions: dose 0.3-3 µM, time 25.0 hrs

N#CC/C=C/c1ccc2[nH]cc(NC(=O)Nc3ccc4c(c3)OC(F)(F)O4)c2c1
Activity [1]: Active | Activity [2]: inactive | inhibition [3]: Active | inhibition [4]: Dose-dependent-effect | bioavailability [5]: 12.7% | Activity [6]: Active | inhibition [7]: Active | MRT inf [8]: 22.8 min | inhibition [9]: Active | inhibition [10]: Dose-dependent-effect | Vd [11]: 2.38 L/kg | inhibition [12]: Dose-dependent-effect | inhibition [13]: Active | CLH [14]: 64.8 µL/min/mg | Activity [15]: Active | inhibition [16]: Active | inhibition [17]: Active | inhibition [18]: Active | Activity [19]: Active | inhibition [20]: Active | AUC(0-inf) [21]: 196 ng·h/mL | inhibition [22]: Dose-dependent-effect | inhibition [23]: Active | Activity [24]: Non-toxic | inhibition [25]: Active | inhibition [26]: inactive | inhibition [27]: inactive | inhibition [28]: Active
